Assay results reported in PMC6214915, “Design of a novel cell-permeable chimeric peptide to promote wound healing” (Scientific Reports, 2018).
Converted amounts (≈) assume the structure as drawn. Peptide text beside a SMILES is read from it.

How the values were obtained:
[1] = Circular dichroism spectroscopy (secondary structure); type: physicochemical; conditions: for Percentage of the α-helix content: phosphate buffer / Percentage of the α-helix content: 50% TFE: CD, 20 µM peptide, calculated from ellipticity at 222 nm; for Percentage of the α-helix content: phosphate buffer: 10 mM phosphate buffer pH 7.0, 20 °C; for Percentage of the α-helix content: 50% TFE: 10 mM phosphate buffer pH 7.0 with 50% TFE, 20 °C; for R-value: ratio between molar ellipticity values at 222 and 208 nm, in the presence of 50% TFE, R = 1 perfect α-helix
Protocol: Figure 1 Structural characteristics of investigated peptides. CD spectra were acquired at a peptide concentration of 20 µM in 10 mM phosphate buffer, pH 7.0 (A) and in the additional presence of 50% TFE (B). The percentage of the α-helix content was calculated from the ellipticity value at 222 nm using the following formula: (% α-helix = ((([Θ222]−3000)⁄(−36000−3000)) × 100)[47] (C). R-values represent the ratio between the molar ellipticity values at 222 and 208 nm[20] and R = 1 defined as hallmark for a perfectly built α-helix[48]. Helical wheel projections of Tylotoin-sC18* and sC18*-Tylotoin predicted by HeliQuest (D). TEXT PRINTED IN THE PICTURE: (C) Tylotoin-sC18: Percentage of the α-helix content: phosphate buffer: 12.1; Percentage of the α-helix content: 50% TFE: 46.3; R-value: 0.85 | (C) sC18-Tylotoin: Percentage of the α-helix content: phosphate buffer: 13.1; Percentage of the α-helix content: 50% TFE: 43.5; R-value: 0.87 | (C) Tylotoin-sC18*: Percentage of the α-helix content: phosphate buffer: 10.7; Percentage of the α-helix content: 50% TFE: 46.3; R-value: 0.77 | (C) sC18*-Tylotoin: Percentage of the α-helix content: phosphate buffer: 6.9; Percentage of the α-helix content: 50% TFE: 40.5; R-value: 0.74 | (C) Tylotoin: Percentage of the α-helix content: phosphate buffer: 15.6; Percentage of the α-helix content: 50% TFE: 25.0; R-value: 0.51
CD spectra were recorded from 180 nm to 270 nm in 0.5 nm intervals at 20 °C using a JASCO J-715 spectropolarimeter in an N2 atmosphere. The CD spectra were measured using a 1 mm quartz cuvette and the instrument parameters were set as follows: sensitivity, 100 mdeg; scan mode, continuous; scan speed, 50 nm/min; response time, 2 sec and bandwidth, 1.0 nm. Peptides were dissolved in 10 mM potassium phosphate buffer (pH 7.0) containing either 0 or 50% (v/v) trifluoroethanol (TFE) to a final peptide concentration of 20 µM.

[2] = system: human keratinocytes HaCaT; assay: MTT cell viability assay on HaCaT keratinocytes; type: cell-based; conditions: 24 h, 37 °C; for Effect on HaCaT cells at higher concentrations: >50 µM; for Cytotoxic effect on keratinocytes viability: 10 to 100 µM, serum-free medium, triplicate, n = 3
Protocol: Figure 2 Cytotoxic profile of peptides against human keratinocytes HaCaT. Cells were incubated with indicated concentrations of peptides at 37 °C for 24 h. Cell viability of HaCaT cells was determined by MTT assay relative to untreated cells (set to 100%). As positive control, cells were treated with 70% EtOH for 10 min. Experiments were conducted in triplicate with n = 3. Error bars represent standard deviation. (**p < 0.01; ***p < 0.001).
The toxic effect of the investigated peptides on HaCaT cells was evaluated using the [3(4,5-dimethylthiazol-2yl)2,5-diphenyltetrazolium bromide] (MTT) colorimetric method. MTT is a tetrazolium salt which is reduced to a purple colored formazan product by mitochondrial reductases, present only in metabolically active cells. Keratinocytes were seeded onto a 96-well microtiter plate at a density of 8 × 10^4 cells per well in DMEMg supplemented with 2 mM L-Gln and 2% FBS. After reaching 70–80% confluency, the medium was removed and cells were incubated at 37 °C for 24 h with peptides at different concentrations ranging from 10 to 100 µM (in serum-free medium). After 24 h of incubation, 10 µl of MTT (in PBS, 0.45 mg/ml final) were added to each well. After 4 h incubation, the supernatants were removed and the formazan crystals were dissolved by adding 100 μl of dimethyl sulfoxide (DMSO). For the positive control, cells were treated with 70% EtOH for 10 min. The absorption was measured at 570 nm and at a reference wavelength of 630 nm using Tecan infinite M200 plate reader.

HaCaT cells = assay: Cellular uptake of CF-labeled peptides into HaCaT cells (flow cytometry and confocal microscopy); type: cell-based, human; conditions: 10 µM CF-labeled peptides, 30 min, 37 °C, confocal microscopy
Protocol: Cells were seeded in a µ-slide 8-well (Ibidi) plate (HaCaT 90,000; HeLa 45,000) and grown to 70–80% confluency. Then, the cells were incubated with CF-labeled peptides in serum-free medium for the requested time at either 4 °C or 37 °C as indicated. The nuclei were stained for 10 min with 0.6 µl Hoechst 33342 nuclear dye (bisbenzimide H33342, 1 mg/ml in H2O, sterile filtered) prior to the end of peptide incubation. Finally, the solutions were removed and cells were treated for 30 s with trypan blue (150 µM in 0.1 M acetate buffer, pH 4.15) for quenching external fluorescence. After washing twice with PBS, 300 µl of FBS-containing growth medium were added to each well. Images were taken by using a Nikon Eclipse Ti confocal laser scanning microscope equipped with a 60x oil-immersion objective (N.A. 1.4, Plan APO VC, Nikon). Images were recorded with Nikon EZ-C1 software and adjusted equally with ImageJ software.
For treatment with endocytosis inhibitor, 80 µM of dynasore (in serum-free medium, Sigma-Aldrich) was added to the cells. After 1 h of incubation at 37 °C, CF-labeled peptide solution (in serum-free medium, 10 µM final) was added and incubated for further 30 min. Afterwards, the cells were handled as described above.
Cells were seeded in triplicate in a 24-well plate (HaCaT 370,000; HeLa 170,000) and grown to 70–80% confluency under normal growth conditions. […]

[3] = cited from earlier work
Description: Therefore, it was particularly interesting whether the combination of both, Tylotoin ...

Micrococcus luteus = type: cell-based, Micrococcus luteus (DSM 20030); conditions: 6 h
Protocol: HaCaT (immortalized human keratinocytes) and HeLa (human cervix carcinoma) cells were cultured in sterile 10 cm petri dishes at 37 °C in a humidified atmosphere of 5% CO2. HaCaT cells were maintained in DMEM containing 4,500 mg/l glucose (DMEMg), 2 mM L-Gln and 10% FBS (fetal bovine serum). HeLa cells were grown in RPMI 1640 supplemented with 4 mM L-Gln and 10% FBS. Bacteria used were Micrococcus luteus (DSM 20030) and Salmonella typhimurium (TA 100). Mueller Hinton (MH) broth agar plates were used for maintenance und MH broth medium was used to carry out antimicrobial activity studies.
Antimicrobial activity of peptide conjugates against gram-positive and gram-negative bacteria was conducted using the p-iodonitrotetrazolium-chloride (INT) violet assay as previously described. INT is a tetrazolium-based reagent which is converted to a pink formazan dye in the presence of metabolically active bacteria.
In brief, M. luteus and S. typhimurium were cultured in MH broth overnight at 37 °C while mild shaking (180 rpm). Overnight-cultured bacteria were added into fresh medium, grown to an optical density of 0.7 at 600 nm and 10 µl bacterial solution were added in triplicate to wells of a 96-well plate (BD Falcon, USA). […] The viability of bacteria relative to untreated bacteria was determined by measuring the absorption at 540 nm on a Tecan infinite M200 plate reader.

Salmonella typhimurium = conditions: murium, 6 h
Protocol: Antimicrobial activity of peptide conjugates against gram-positive and gram-negative bacteria was conducted using the p-iodonitrotetrazolium-chloride (INT) violet assay as previously described[33].
In brief, M. luteus and S. typhimurium were cultured in MH broth overnight at 37 °C while mild shaking (180 rpm). Overnight-cultured bacteria were added into fresh medium, grown to an optical density of 0.7 at 600 nm and 10 µl bacterial solution were added in triplicate to wells of a 96-well plate (BD Falcon, USA). The peptides used at various concentrations and 180 µl of MH medium were added to each corresponding well and incubated for 6 h at 37 °C. 10 µM chloramphenicol served as positive control and H20 was used as negative control. After incubation time, 10 μl of the freshly prepared INT solution (1 mg/ml in DMSO) were added to each well and incubated for further 30 min at 37 °C. The viability of bacteria relative to untreated bacteria was determined by measuring the absorption at 540 nm on a Tecan infinite M200 plate reader.

| Compound | Percentage of the α-helix content: phosphate buffer [1] [%] | Percentage of the α-helix content: 50% TFE [1] [%] | R-value [1] | Effect on HaCaT cells at higher concentrations [2] | Intracellular distribution in keratinocytes (HaCaT cells) | Antimicrobial activity [3] | Cytotoxic effect on keratinocytes viability [2] | MIC value (Micrococcus luteus) [µM] | MIC value (Salmonella typhimurium) | Difference in relative cell viability between sC18* and sC18*-Tylotoin [2] |
| --- | --- | --- | --- | --- | --- | --- | --- | --- | --- | --- |
| GLRKRLRKFRNKIKEKKCVRQNNKRVCK-NH2 [sC18-Tylotoin, chimeric peptide, CPP sC18 fused N-terminally to Tylotoin] | 13.1 | 43.5 | 0.87 | negatively affect the cells | – | – | – | – | – | – |
| GLRKRLRKFRNKIKEK-NH2 [sC18, cell penetrating peptide recently developed in the authors' group; control peptide] | – | – | – | negatively affect the cells | some nuclear uptake was visible | moderate antimicrobial activities | – | – | – | – |
| KCVRQNNKRVCKGLRKRLRKFRNKIKEK-NH2 [Tylotoin-sC18, chimeric peptide, CPP sC18 fused to the C-terminus of Tylotoin] | 12.1 | 46.3 | 0.85 | – | – | – | no cytotoxic effect at all | – | – | – |
| CC(C)C[C@H](NC(=O)CNC(=O)[C@H](CCCCN)NC(=O)[C@H](CS)NC(=O)[C@@H](NC(=O)[C@H](CCCNC(=N)N)NC(=O)[C@H](CCCCN)NC(=O)[C@H](CC(N)=O)NC(=O)[C@H](CC(N)=O)NC(=O)[C@H](CCC(N)=O)NC(=O)[C@H](CCCNC(=N)N)NC(=O)[C@@H](NC(=O)[C@H](CS)NC(=O)[C@@H](N)CCCCN)C(C)C)C(C)C)C(=O)N[C@@H](CCCNC(=N)N)C(=O)N[C@@H](CCCCN)C(=O)N[C@@H](CCCNC(=N)N)C(=O)N[C@@H](CC(C)C)C(=O)N[C@@H](CCCNC(=N)N)C(=O)N[C@@H](CCCCN)C(=O)N[C@@H](Cc1ccccc1)C(=O)N[C@@H](CCCNC(=N)N)C(=O)N[C@@H](CC(N)=O)C(=O)N[C@@H](CCCCN)C(N)=O [Tylotoin-sC18*] (H-KCVRQNNKRVCKGLRKRLRKFRNK-NH2; N-terminus assumed) | – | – | – | – | – | – | – | 13.47 (≈ 40.8 µg/mL) | ~ 12.64 µM | – |
| GLRKRLRKFRNKKCVRQNNKRVCK-NH2 [sC18*-Tylotoin, chimeric peptide, CPP sC18* fused N-terminally to Tylotoin] | 6.9 | 40.5 | 0.74 | – | – | – | slight decrease in cell viability | – | – | about 40% |
